Test results taken from PubChem BioAssay (NCI).
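Test compounds were applied to cells in 96-well plates for 48 hours at 5 doses. At the GI50, growth is halved. TGI: total growth inhibition.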 Where a SMILES comes first, the peptide text is derived from it.

Experiments:
Assay in all cases: NCI-60 cell line screen, 48 h
HOP-92 NSCLC = tested on: HOP-92 NSCLC
HT29 colon = tested on: HT29 colon
KM12 colon = tested on: KM12 colon
MOLT-4 leukemia = tested on: MOLT-4 leukemia
NCI-H460 lung = tested on: NCI-H460 lung
OVCAR-5 ovarian = tested on: OVCAR-5 ovarian
OVCAR-8 ovarian = tested on: OVCAR-8 ovarian
RXF 393 renal = tested on: RXF 393 renal
SW-620 colon = tested on: SW-620 colon
UACC-62 melanoma = tested on: UACC-62 melanoma

SMILES	TGI (HOP-92 NSCLC)	TGI (HT29 colon)	TGI (KM12 colon)	TGI (MOLT-4 leukemia)	TGI (NCI-H460 lung)	TGI (OVCAR-5 ovarian)	TGI (OVCAR-8 ovarian)	TGI (RXF 393 renal)	TGI (SW-620 colon)	TGI (UACC-62 melanoma)	GI50 (HOP-92 NSCLC)	GI50 (HT29 colon)	GI50 (KM12 colon)	GI50 (MOLT-4 leukemia)	GI50 (NCI-H460 lung)	GI50 (OVCAR-5 ovarian)	GI50 (OVCAR-8 ovarian)	GI50 (RXF 393 renal)	GI50 (SW-620 colon)	GI50 (UACC-62 melanoma)
Cc1c(C(=O)CC(=O)C(=O)Nc2ccc(Cl)c(Cl)c2)[n+](=O)c2ccccc2n1[O-]	> 100 µM	74.5 µM	> 100 µM	44.5 µM	57.1 µM	86.4 µM	43.6 µM	92.2 µM	71.8 µM	32.7 µM										
CCCc1cc2cc(-n3nc(C)c4c3CC(C)(C)CC4=O)cc(NC3CCC(O)CC3)c2c(=O)[nH]1 (stereo not drawn)	1.8 µM	> 100 µM	> 100 µM	> 100 µM	> 100 µM	> 100 µM	> 100 µM	2.92 µM	> 100 µM	5.39 µM	0.194 µM	0.0308 µM	0.0986 µM	0.186 µM	0.0744 µM	0.626 µM	0.519 µM	0.113 µM	0.0578 µM	0.189 µM
ClC1CCC2OOC1O2 (stereo not drawn)	> 100 µM	> 100 µM	> 100 µM	> 100 µM	> 100 µM	> 100 µM	> 100 µM	> 100 µM	> 100 µM	> 100 µM										
COc1ccc(N(CC(=O)NCCC[Te]c2ccccc2)C(=O)CCSC2=C(C)C(=O)c3ccccc3C2=O)cc1	4.44 µM	7.03 µM	2.18 µM		0.948 µM	1.88 µM	6.06 µM	4.47 µM	8.03 µM	4.31 µM	1.72 µM	1.95 µM	0.702 µM	0.911 µM	0.31 µM	0.498 µM	0.722 µM	2.07 µM	2.41 µM	1.82 µM
O=c1c2ccccc2nc(-c2ccc(Br)cc2)n1NC1OC(CO)C(O)C(O)C1O (stereo not drawn)	> 100 µM	> 100 µM	> 100 µM	> 100 µM	> 100 µM	> 100 µM	> 100 µM		> 100 µM	> 100 µM										
Cc1cccc2c(N=Nc3ccc(S(N)(=O)=O)cc3)c(O)[nH]c12	> 25 µM	> 25 µM	> 25 µM	> 25 µM	> 25 µM	> 25 µM	> 25 µM	> 25 µM	> 25 µM	> 25 µM	> 25 µM	> 25 µM	> 25 µM	> 25 µM	> 25 µM	> 25 µM	> 25 µM	> 25 µM	> 25 µM	> 25 µM
CCC1=C(C)/C(=C/c2[nH]c(CBr)c(CC)c2C)N=C1CBr	26.7 µM	26.7 µM	26.9 µM	27.6 µM	38.9 µM		26.6 µM	54 µM	25.3 µM	24.6 µM										
Cc1c2c(nn1C(=O)c1nn(-c3ccc(Cl)cc3)cc1O)-c1ccccc1CC2	> 100 µM	> 50.6 µM	> 100 µM	> 39.5 µM	0.0613 µM	> 100 µM	> 100 µM	> 42.8 µM	> 100 µM		0.0521 µM	0.226 µM	0.0632 µM	0.0415 µM	0.0237 µM	0.0723 µM	0.0523 µM	0.0441 µM	0.289 µM	0.0507 µM
COC(=O)/C(C#N)=C1\CCC(O)N1C (stereo not drawn)		> 100 µM	> 100 µM	> 100 µM	> 100 µM	> 100 µM	> 100 µM	> 100 µM	> 100 µM	> 100 µM										
COc1ccc(C(c2ccc(C(C)C)cc(=O)c2O)c2ccc3cccnc3c2O)cc1 (stereo not drawn)	0.898 µM	20.2 µM	18.7 µM	> 100 µM	10.1 µM	6.32 µM	12.7 µM		24.4 µM	4.63 µM										
CCc1ccccc1NC(=O)CCc1n[nH]c(=S)o1	> 100 µM	> 100 µM	> 100 µM	> 100 µM	> 100 µM	> 100 µM	> 100 µM		44.1 µM	> 100 µM										
COC(=O)C1=CN=C(C(=O)OC)NN1	> 100 µM	> 100 µM	> 100 µM	> 100 µM	> 100 µM		> 100 µM	> 100 µM	> 100 µM	> 100 µM										
Cc1ccc(S(=O)(=O)/N=c2\ssc(Nc3ccccc3)c2Cl)cc1	> 50 µM	> 50 µM	20.4 µM	> 50 µM	19.6 µM	> 50 µM	> 50 µM	46.1 µM		> 50 µM	7.43 µM	17.2 µM	8.26 µM	10.3 µM	9.02 µM	21.1 µM	16.5 µM	13.6 µM		13.5 µM
CC(=O)NC(CCCCNC(=O)N(CCCl)N=O)C(=O)NCc1ccccc1 (stereo not drawn)	> 100 µM	> 100 µM	> 100 µM	> 100 µM	> 100 µM		> 100 µM		> 100 µM	> 100 µM										
COc1ccc(-c2nn(-c3cccc(NC(=O)Nc4ccc(Cl)c(C(F)(F)F)c4)c3)cc2-c2ccncc2)cc1Cl		13.1 µM	8.55 µM	6.74 µM	8.99 µM	30.8 µM	13.1 µM	4.83 µM	63.9 µM	5.01 µM		3.18 µM	2 µM	2.08 µM	1.99 µM	4.36 µM	2.43 µM	1.42 µM	3.66 µM	1.93 µM
Cc1oc2c(C)c(O)c3c(c2c1C1(C)OCCO1)C(=O)C=C(Cl)C3=O	> 100 µM	> 100 µM	> 100 µM	> 100 µM	> 100 µM	> 100 µM	> 100 µM	> 100 µM	> 100 µM											
CN(C)C(=O)/N=c1\ss/c(=N\C(=S)N(C)C)n1-c1ccccc1	> 100 µM		> 100 µM	> 82.1 µM	> 100 µM	> 100 µM	> 61.1 µM	> 79.9 µM	> 100 µM	> 100 µM				0.158 µM						1.92 µM
C[C@@H](CO)OCOCc1ccccc1	> 100 µM	> 100 µM	> 100 µM	> 100 µM	> 100 µM			> 100 µM	> 100 µM	> 100 µM										

SMILES	TGI (HOP-92 NSCLC)	TGI (HT29 colon)	TGI (KM12 colon)	TGI (MOLT-4 leukemia)	TGI (NCI-H460 lung)	TGI (OVCAR-5 ovarian)	TGI (OVCAR-8 ovarian)	TGI (RXF 393 renal)	TGI (SW-620 colon)	TGI (UACC-62 melanoma)	GI50 (HOP-92 NSCLC)	GI50 (HT29 colon)	GI50 (KM12 colon)	GI50 (MOLT-4 leukemia)	GI50 (NCI-H460 lung)	GI50 (OVCAR-5 ovarian)	GI50 (OVCAR-8 ovarian)	GI50 (RXF 393 renal)	GI50 (SW-620 colon)	GI50 (UACC-62 melanoma)
O=C1N=C(c2ccccc2)OC1C(=O)c1ccccc1 (stereo not drawn)		> 100 µM	> 100 µM	> 100 µM	> 100 µM	> 100 µM	> 100 µM	> 100 µM	> 100 µM	> 100 µM										
ClCc1ccc(-c2ccc(Cn3cnc4c(Cl)nc(Cl)nc43)cc2)cc1	5.56 µM	3.31 µM	4.4 µM	6.97 µM	10.6 µM	32.4 µM		3.38 µM	3.41 µM	6.35 µM	1.98 µM	1.72 µM	2.12 µM	1.95 µM	3 µM	17.8 µM		1.67 µM	1.83 µM	2.49 µM
O=C1OCc2c1cc(F)cc2[N+](=O)[O-]		> 100 µM	> 100 µM	> 100 µM	> 100 µM	> 100 µM	> 100 µM	> 100 µM	> 100 µM	> 100 µM		> 100 µM	> 100 µM	> 100 µM	> 100 µM	> 100 µM	> 100 µM	> 100 µM	> 100 µM	> 100 µM
O=C(Nc1ccccc1)Nc1cccc(-n2cc(-c3ccncc3)c(-c3ccc(O)c(Cl)c3)n2)c1		4.45 µM	10.5 µM	9.03 µM	17.1 µM	31.5 µM	21 µM	9.63 µM	38.4 µM	15.5 µM		2.27 µM	3.3 µM	2.92 µM	3.24 µM	5.39 µM	3.27 µM	2.43 µM	3.67 µM	3.73 µM
Nc1ncnc(NC2C=C(CO)C(O)C2O)c1[N+](=O)[O-] (stereo not drawn)		> 100 µM	> 100 µM	> 100 µM	> 100 µM	> 100 µM	> 100 µM	> 100 µM	59 µM	> 100 µM										
S=c1nc2[nH]ncc2c(N/N=C/c2ccccc2)[nH]1	> 100 µM		> 100 µM	> 100 µM	> 100 µM	> 100 µM	> 100 µM	> 100 µM	> 100 µM	> 100 µM	> 100 µM		> 100 µM	> 100 µM	93.6 µM	> 100 µM	> 100 µM	> 100 µM	> 100 µM	72.7 µM
C#CCN=C(N/N=C/c1ccc([N+](=O)[O-])o1)NS(=O)(=O)c1cc(C)c(Cl)cc1SCC(N)=O		> 100 µM	38.9 µM	31.9 µM	29.9 µM	34.5 µM	29.6 µM		17.1 µM	> 100 µM		26.3 µM	18.8 µM	13.2 µM	12.5 µM	19.9 µM	13.8 µM		4.44 µM	47.3 µM
O=C(O)c1ccc(O)c(N=Nc2cc(S(=O)(=O)O)c3ccccc3c2O)c1	> 100 µM	> 100 µM	> 100 µM	> 100 µM	> 100 µM	> 100 µM	> 100 µM	> 100 µM	> 100 µM											
CC(C)CC(NC(=O)C(CC(C)C)NC(=O)C(Cc1cnc[nH]1)NC(=O)C(C)NC(=O)C(NC(=O)C(C)NC(=O)C(Cc1c[nH]c2ccccc12)NC(=O)C(CCC(=O)O)NC(=O)C(N)Cc1ccccc1)C(C)C)C(N)=O (stereo not drawn) (H-FEWAVAHLL-NH2; configuration not given here)		> 100 µM	> 100 µM	> 100 µM	> 100 µM	> 12.5 µM	> 100 µM	> 100 µM	> 100 µM	> 100 µM		> 100 µM	> 100 µM	> 100 µM	> 100 µM		> 100 µM	> 100 µM	> 100 µM	> 100 µM
COc1cc(C#N)cc(OC)c1OCCOCCOc1c(OC)cc(C#N)cc1OC	78.4 µM	> 100 µM	> 100 µM	> 100 µM	> 100 µM	> 100 µM	> 100 µM		> 100 µM	> 100 µM	10.3 µM	> 100 µM	51.7 µM	21.3 µM	84.6 µM	> 100 µM	51.3 µM		> 100 µM	33.1 µM
NC(CNO)C(=O)O (stereo not drawn)	> 100 µM	> 100 µM	> 100 µM		> 100 µM	> 100 µM	> 100 µM	> 100 µM	> 100 µM	> 100 µM										
Cc1ccc([N+](=O)[O-])cc1NC(=O)C(=O)Cc1occc(=O)c1O	> 100 µM	> 100 µM	> 100 µM		> 100 µM	> 100 µM	> 100 µM	> 100 µM	> 100 µM	> 100 µM										
C#CCOCn1cnc2c(=S)nc[nH]c21	> 100 µM	> 100 µM	> 100 µM		> 100 µM	> 100 µM	> 100 µM	> 100 µM	> 100 µM	> 100 µM										
O=c1cc(-c2ccc(Cl)cc2)[nH]c2ncccc12	> 100 µM	> 100 µM	> 100 µM	> 100 µM	> 100 µM	> 100 µM	> 100 µM		> 100 µM	> 100 µM					37.9 µM					
Oc1ccc(CNCc2ccccc2)c2cccnc12	0.57 µM	> 100 µM	> 100 µM	18.9 µM	0.184 µM	99.2 µM	> 100 µM		> 100 µM	> 34.8 µM										
O=C1C(=O)N(C(=O)c2ccc(Cl)c(Cl)c2)c2ccc(Cl)cc21		> 100 µM	> 100 µM	> 100 µM	> 100 µM	> 100 µM	> 100 µM	> 100 µM	> 100 µM	> 100 µM										
COc1ccc(-c2cc(=O)c3c(OC)c(OC)c(OC)c(OC)c3o2)cc1OC	74.4 µM	> 100 µM		70.3 µM	> 100 µM	> 100 µM	> 100 µM	> 100 µM	> 100 µM	72.4 µM										
